Experimental data reported in ChEMBL document CHEMBL1130792, “Studies on an immunosuppressive macrolactam, ascomycin: synthesis of a C-33 hydroxyl derivative” (Bioorg Med Chem Lett, 1998).
In brackets after ≈: the same amount, converted by molar mass.

How the values were obtained:
[1] = Solubility at pH 7.4; assay type: physicochemical; settings: buffer
Homo sapiens [2] = organism: Homo sapiens; assay: Compound was tested in vitro for inhibitory activity against human FKBP; assay type: functional
[3] = Distribution coefficent (Log D) value at pH 7.4; assay type: physicochemical; settings: read-out: LogD7.4
Homo sapiens [4] = organism: Homo sapiens; assay: Compound was tested in vitro for inhibition of human mixed lymphocyte proliferation (HuMLR); assay type: functional
Rattus norvegicus [5] = assay: Compound was tested in vivo for immunosuppressive activity using rat popliteal lymph node (rPLN) hyperplasia assay; assay type: functional
[6] = Solubility at pH 6.5; assay type: physicochemical; settings: buffer
[7] = Distribution coefficient (Log D) value at pH 6.5; assay type: physicochemical; settings: octanol/water, read-out: LogD6.5
Rattus norvegicus [8] = assay: Compound was tested in vivo for immunosuppressive activity using rat popliteal lymph node (rPLN) hyperplasia assay at 3 mg/kg; assay type: functional
[9] = Compound was tested in vitro for inhibitory activity against human FK506 binding protein

Row | solubility [1] [µg/mL] | IC50 (Homo sapiens [2]) [nM] | logD [3] | solubility ([6]; read-out: Solubility) [µg/mL] | logD [7] | solubility [6] [µg/mL] | IC50 [9] [nM] | Structure (SMILES) | IC50 (Homo sapiens [4]) [nM] | ED50 (Rattus norvegicus [5]) [mg/kg] | inhibition in vivo at 3 mg/kg (Rattus norvegicus [8]) [%]
1 | 455 (≈ 563 µM) | 1.21 | 3.4 | 464 (≈ 574 µM) | 3.6 |  |  | CC[C@@H]1/C=C(\C)C[C@H](C)C[C@H](OC)[C@H]2O[C@@](O)(C(=O)C(=O)N3CCCC[C@H]3C(=O)O[C@H](/C(C)=C/[C@@H]3C[C@@H](O)[C@@H](O)[C@H](OC)C3)[C@H](C)[C@@H](O)CC1=O)[C@H](C)C[C@@H]2OC | 0.17 | 0.72 | 
2 | 245 (≈ 303 µM) | 39.2 | 3.9 | 294 (≈ 364 µM) | 3.9 |  |  | CC[C@@H]1/C=C(\C)C[C@H](C)C[C@H](OC)[C@H]2O[C@@](O)(C(=O)C(=O)N3CCCC[C@H]3C(=O)O[C@H](/C(C)=C/[C@@H]3CC[C@@H](OC)[C@H](O)C3O)[C@H](C)[C@@H](O)CC1=O)[C@H](C)C[C@@H]2OC (stereo partly drawn) | 0.72 |  | 36
3 | 4.2 (≈ 5.3 µM) | 2.06 | 4.22 |  | 3.98 | 1.6 (≈ 2.02 µM) |  | CC[C@@H]1/C=C(\C)C[C@H](C)C[C@H](OC)[C@H]2O[C@@](O)(C(=O)C(=O)N3CCCC[C@H]3C(=O)O[C@H](/C(C)=C/[C@@H]3CC[C@@H](O)[C@H](OC)C3)[C@H](C)[C@@H](O)CC1=O)[C@H](C)C[C@@H]2OC [ASCOMYCIN] | 0.25 | 0.31 | 
4 | 5.2 (≈ 6.47 µM) |  | 4.38 | 1 (≈ 1.24 µM) | 4.36 |  | 2.54 | C=CC[C@@H]1/C=C(\C)C[C@H](C)C[C@H](OC)[C@H]2O[C@@](O)(C(=O)C(=O)N3CCCC[C@H]3C(=O)O[C@H](/C(C)=C/[C@@H]3CC[C@@H](O)[C@H](OC)C3)[C@H](C)[C@@H](O)CC1=O)[C@H](C)C[C@@H]2OC [TACROLIMUS ANHYDROUS] | 0.37 | 0.15 | 
